The numbers were not newly measured in publication PMC13179673 (European journal of pharmaceutical sciences : official …, 2025), which cites them from elsewhere.

The conditions of data set [1]: biological pH at 37°C.
The test system of another data set is OHT rabbit eyes. More on the design: method as in Behar-Cohen et al., 1996. To be noted: eyedrop, ref Behar-Cohen et al., 1996.

SMILES strings stand for the structures.

Usually half-life stands for the time in which the quantity being followed falls by half. Turning to `[NH-]c1c[n+](N2CCOCC2)no1` [SIN-1, linsidomine], the half-life in data set [1] is less than 1 h. Also, in the data set with OHT rabbit eyes, the “duration of IOP-lowering effect” value is no more than 3 h.
